Values quoted from earlier work, collected in patent US20160032347A1, “NOVEL METHOD AND DEVICE FOR WHOLE-CELL BACTERIAL BIO-CAPACITOR CHIP FOR DETECTING CELLULAR STRESS INDUCED BY TOXIC CHEMICALS” (Sabanci Universitesi, priority 2011, published 2016).

Tested on: E. coli
Details: previous studies; ~6.5%

[Cl-].[Na+] [NaCl, sodium chloride]
salt tolerance level reported for E. coli: up to 1.1 M
